# According to ChEMBL document CHEMBL3507680, “University of Dundee, Gates Library screen for HepG2 cell viability”:
# “And” between values parts separate entries of the source, which are not always exact repeats. Identical values can stand only once.
# Assay: Human HepG2 cell viability assay in 384 well format
# Type: toxicity, cell-based
# Design: dose 125 nL, time 70.5 hour; cytotoxicity at 70.5 h: concentration not given beside the values
# Settings: HepG2 cells, read-out: Inhibition
row,SMILES,cytotoxicity at 70.5 h
1,CCOC(C)c1nc(Cn2cc(C)cn2)cs1 (configuration not stated),9.54%
2,Fc1cccc(-c2nnn3c2COCC(CNCc2nccs2)C3)c1 (configuration not stated),-11.8%
3,Cc1nc(CN2C(=O)C[C@@H]3[C@@H]2CCN3S(C)(=O)=O)cs1,-4.41%
4,NC(=O)C1CN(c2ccc3c(Cl)ccnc3c2F)CCO1 (configuration not stated),-7.96%
5,CCC(C)(NCC(=O)N(c1ccccc1)C(C)C)c1nc(C)cs1 (configuration not stated),2.38%
6,Cc1cc(NC(=O)CNCc2csc(-c3cnccn3)n2)ccc1Cl,-6.43%
7,COCCC(=O)N1CCC2(CN(Cc3cccc(F)c3)C2)C1,-7.85%
8,Cc1nc(CNC(C)c2ccc(S(=O)(=O)N(C)C)cc2)no1 (configuration not stated),-2.76%
9,CN(C)c1nc(NCCc2cnccn2)ncc1F,-9.9%
10,CNC(=O)C1(CCCc2cnccn2)CCN1CCc1ccccc1 (configuration not stated),-2.58%
11,CO[C@H]1CCN(C2CCC2)[C@@H]2CN(Cc3ccncc3)C[C@H]12,-0.868%
12,O=C(NCC(CO)Cc1ccc(Cl)cc1)c1ccncc1Cl (configuration not stated),-1.15%
13,CCN1CCN(c2ccc(CNC(=O)Cc3c(C)noc3C)cn2)CC1,-10.4%
14,Cc1cc(NC(=O)CN2CCN(c3nc(C)cs3)C(C)C2)on1 (configuration not stated),-1.59%
15,CC(C)c1n[nH]c(C2CN(Cc3ccno3)CCO2)n1 (configuration not stated),0.21%
16,CCN(CC)CC1CCN(Cc2ccn(C)c(=O)c2)CC1,-4.81%
17,COCCN1CCC(CNC(=O)c2ccnc(-n3ccnc3)c2)CC1,-0.309%
18,COc1ccc(F)c(CN2CCCC(c3cc(O)nc(C)n3)C2)c1 (configuration not stated),-3.96%
19,O=S(=O)(NCCNc1ccc(-n2cccc2)nn1)c1cccs1,3.82%
20,COc1ccc(C[C@H]2CN(C(=O)c3cscn3)CC[C@@H]2OC)cc1,49.9%
21,N#Cc1c(F)cccc1N1CCN(S(=O)(=O)c2cccs2)CC1,8.47%
22,CCO[C@H]1CN(C)C[C@@H]1NC(=O)c1cc(C)nc2ccc(C)cc12,-6.33%
23,Cc1cccc2nc(CSCc3nnnn3C(C)C)cn12,-14.3%

row,SMILES,cytotoxicity at 70.5 h
1,CC(C)(C)CN(CCC#N)C(=O)c1cccc(CN2CCCC2)c1,4.22%
2,COCCC1COC2(CCN(C(=O)c3cccn3C)CC2)C1 (configuration not stated),-14.7%
3,COCC(=O)NC(c1ccc(Cl)cc1)C(F)(F)F (configuration not stated),-12.5%
4,CC(C)(O)CNc1ccc(C#N)c(C(F)(F)F)c1,-1.99%
5,CC(C)Cc1ncc2c(n1)CN(c1nccc(N(C)C)n1)C2,-8.35%
6,O=C1CC(c2ccncc2)c2c(c(C(=O)O)cn2-c2ccc(F)cc2)N1 (configuration not stated),-6.2%
7,CC(C)Nc1ncc(-c2csc(NC(=O)C[C@H]3COCCN3)n2)cn1,-10.2%
8,COc1ccc(F)c(CN2CCC3(CCC(=O)N(CC(N)=O)C3)CC2)c1,5.8%
9,Cc1nc(CN2CCCC(N(C)Cc3nnc(C4CC4)o3)C2)no1 (configuration not stated),13.8%
10,c1coc(CN2CCc3onc(Cn4ccnc4)c3C2)c1,-2.36%
11,Cc1noc([C@H]2CC[C@@H]3[C@@H](CCN3S(=O)(=O)C3CC3)O2)n1,-3.57%
12,Cc1nc(-c2cccs2)ccc1C(=O)N1CCN(CCO)CC1,0.744%
13,CC1CN(CC2CCCC2)CCN1c1ccc2nncn2n1 (configuration not stated),4.49%
14,CCN(CC)c1ncc(Cl)c(C(=O)NC2CC2)n1,-0.0542%
15,CN1CCN([C@H]2COC[C@@H]3CN(Cc4cccnc4)C[C@@H]32)CC1,-8.25%
16,CC(NC(=O)N1CCN(c2ncccn2)CC1)c1ccc(C#N)cc1 (configuration not stated),-4.87%
17,Cc1cc(N2CCN(C(=O)[C@@H]3C[C@@H]4C=C[C@H]3C4)CC2)nc2ccccc12,-4.89%
18,Cn1cc(C2CCCN2C(=O)CS(=O)(=O)C2CCCC2)cn1 (configuration not stated),-8.05%
19,CCCn1nc(C(=O)NCCc2nnc3n2CCC3)ccc1=O,1.09%
20,CCn1cc(CN2CCN(Cc3cc(C)cc(C)c3)C(=O)C2)cc1C#N,15.6%
21,Cc1ccccc1N1CCCN(C(=O)CCc2nncn2C)CC1,-7.29%
22,COc1ccc(CNC(=O)CCc2c(C)noc2C)cc1F,-12.8%
23,CC(C)(C)NC(=O)CCOc1cccc(F)c1,-5.57%

row,SMILES,cytotoxicity at 70.5 h
1,CO[C@H]1CN(C(=O)c2ccc3c(c2)OCO3)[C@@H]2COC[C@H]12,0.574%
2,CC(C)CN1C[C@H]2CCN(c3ncccn3)CC[C@H]2S1(=O)=O,-12.5%
3,O=C(NCCN1CCCCC1)c1scnc1Cl,-8.74%
4,O=C(O)[C@@H]1CN(C(=O)CCC(F)(F)F)C[C@H]1c1ccncc1,-1.6%
5,CC(Oc1ccccc1C(F)(F)F)C(=O)NCC(=O)N1CCCC1 (configuration not stated),-6.07%
6,CCCN1CCN(C(=O)c2cncnc2C)[C@H]2CS(=O)(=O)C[C@H]21,3.92%
7,CS(=O)(=O)N1CCOCC2(CCN(C(=O)c3ccncc3)CC2)C1,-6.51%
8,Cc1ccc2c(c1)c(CNC(C)Cn1ccnc1)nn2C (configuration not stated),-5.3%
9,O=C(C1CCC2(CCN(c3nncs3)CC2)C1)N1CCCC1 (configuration not stated),9.17%
10,CN(C)C(=O)COC[C@@H]1CC[C@H]2[C@H](CCN2c2ncccn2)O1,-66.5%
11,N[C@H]1CC[C@@H](CN2CCCn3nc(CNC(=O)C4CCC4)cc3C2)CC1,-9.19%
12,COc1ccc(CC(=O)N2CCC[C@@H](N)[C@@H]2c2ccccc2F)cc1,-0.222%
13,CCNc1ncc(CN(Cc2ccccc2)CC(C)CO)cn1 (configuration not stated),-4.08%
14,Cc1cc(CNC(=O)CN2CCCC(Cn3cncn3)C2)ccc1F (configuration not stated),3.75%
15,Cc1ccnc(OCC(=O)N2CCCC2)n1,-0.226%
16,CCn1ccnc1CN1CCN(CCOc2ccccc2OC)CC1,7.36%
17,CCN1CCOCC12CCN(c1nccs1)CC2,-13.5%
18,O=C(Cc1ccccc1)N1CCC(c2nnc(-c3ccccn3)o2)CC1,21.6%
19,COc1ccc(-c2nc(C#N)c(N(C)C)o2)cc1S(=O)(=O)N1CCCC1,14.1%
20,Cc1ccc(C(=O)N2CCn3c(COCC4CC4)cnc3C2C)nc1 (configuration not stated),-8.57%
21,Cc1ccc2cc(C3(O)CCN(C(=O)[C@@H]4CCCCN4)CC3)ccc2n1,-2.74%
22,Cn1ccc(NC(=O)Cc2ccccc2F)n1,19.9%
23,CC(C)CNC(=O)[C@H]1CCS(=O)(=O)[C@@H]2CN(Cc3cccnc3)C[C@H]12,-4.4%

row,SMILES,cytotoxicity at 70.5 h
1,CC(C)CNC(=O)[C@H]1CCS(=O)(=O)[C@@H]2CN(CC(C)C)C[C@H]12,-1.81%
2,CN1CCCCC1c1nc(Cc2cccc(F)c2)no1 (configuration not stated),-7.67%
3,COCc1cccc(NC(=O)NCCCN(C)S(C)(=O)=O)c1,-10.1%
4,Cc1nc(C2CCCN2Cc2ccon2)no1 (configuration not stated),-5.54%
5,CN(C)CC(O)Cn1cc(NCc2ccc(Br)cc2)cn1 (configuration not stated),-2.01%
6,CN(C)CCN1CC(C(=O)N2CCC(c3nccn3C)CC2)CC1=O (configuration not stated),6.94%
7,CN(C)CC(=O)N1CCC2(CCc3ccc(-c4ccncc4)cc32)CC1,3.66%
8,COc1ccc(CC(=O)N2CCC(c3nncn3C)CC2)cc1F,-10.5%
9,CC(=O)N1CCc2[nH]cnc2C12CCN(CC1CCOC1)CC2 (configuration not stated),-5.5%
10,CN1CCOC(CNCCOc2cccc(C#N)c2)C1 (configuration not stated),-7.36%
11,Cc1cc2c(cc1Cl)C=CC1(CCN(CC(=O)N3CCCC3)CC1)O2,2.51%
12,CC(C)C(c1cccnc1)N(C)C(=O)Cc1c(F)cccc1F (configuration not stated),-6.11%
13,O=C(CC1CCCC1)N1CCC(c2cc3ncccc3c(O)n2)CC1,-9.11%
14,CCC(=O)NC1CCCN(Cn2nc(C(C)(C)C)ccc2=O)C1 (configuration not stated),-4.43%
15,O=C(c1cn(-c2ccccc2C(F)(F)F)nn1)N1CCSCC1,-15.5%
16,NC(=O)N1CCCN(Cc2cc(F)cc(Br)c2)CC1,-8.26%
17,CC(C)c1cc(NC(=O)CN2CCCC2Cn2cncn2)on1 (configuration not stated),-9.97%
18,Cc1nnc(CN2CCCC(c3cc(C(N)=O)[nH]n3)C2)o1 (configuration not stated),-15.2%
19,CSc1ccc(NC(=O)Cc2cccc(O)c2)nc1,-20.9%
20,COc1ccc(NC(C)C(=O)N2CCN(Cc3ccccc3)CC2)cn1 (configuration not stated),-10%
21,Cc1c[nH]nc1C1CN(c2ncccn2)CCO1 (configuration not stated),-3.49%
22,O=C(NS(=O)(=O)c1ccc(F)cc1)C1CCOc2ccccc21 (configuration not stated),-3.97%
23,Cc1cccc(N2CCC3(CCCN(C(=O)c4cccnc4)C3)CC2)n1,0.517%

row,SMILES,cytotoxicity at 70.5 h
1,CCN(Cc1cnn(C)c1)C[C@H]1CC[C@@H](Cc2ccc(C#N)cc2)O1,-17.4%
2,Cc1cc(NC(=O)CSc2nc(=O)ccn2C(C)C)no1,-0.711%
3,CCN1CC(COC(=O)c2ccccc2Cl)CC1=O (configuration not stated),7.47%
4,Cc1ncc2c(n1)CN(Cc1nc(-c3ccco3)oc1C)CC2,-10.5%
5,Cc1ccc(CNC(=O)COc2ccc3c(c2)OCC3O)cc1 (configuration not stated),-7.79%
6,COCCN1C(=O)CC[C@@H]2[C@@H]1CCN2Cc1c(C)noc1C,-5.73%
7,Cn1ccnc1CN1CCN(CC(O)c2cccc(F)c2)CC1 (configuration not stated),-12.2%
8,CC(Oc1ccccc1)C(=O)N1CCCN(Cc2nccn2C)CC1 (configuration not stated),-10.4%
9,O=C1NCCN1CCNc1cc(-c2ccncc2)nc2ccnn12,-10.3%
10,COCCN1CCC2(C1)c1ccccc1S(=O)(=O)N2C (configuration not stated),-10.1%
11,O=C(Nc1cccc(CN2CCOC2=O)c1)N1CCCCCC1,35.8%
12,CCN(Cc1nc2c(cnn2C)c(=O)[nH]1)Cc1ccccc1Cl,0.498%
13,CCCc1n[nH]c(C2CN(C(=O)c3cc(F)ccc3OC)CCO2)n1 (configuration not stated),-23.2%
14,CC(=O)N(Cc1ncc(C)o1)C1CCN(Cc2cc(C)on2)C1 (configuration not stated),-4.42%
15,c1ccc(CN2Cc3[nH]nc(COc4cccnc4)c3C2)nc1,-7.63%
16,CSCCN(C)Cc1ccc(F)cc1C#N,-4.74%
17,Cn1[nH]c(Br)c2/c(=N\CCN)ncnc1-2,-7.01%
18,Cc1csc(N2CCN(C(=O)C3(C#N)CCCCC3)CC2)n1,-9.16%
19,CC(C)Oc1ccc(CN2CCC(c3n[nH]c4ncccc34)CC2)cc1,21.4%

# Same assay, conditions: hepg2, 70.5 h, 70.5 h
row,SMILES,Inhibition
1,CC1=Nc2c(c(=O)[nH]n2C2CCCCC2)C(c2ccc(C(=O)O)cc2)S1 (configuration not stated),-14.53% and -17.54%
